From article PMC5797143, “Epigenetic modulation of inflammation and synaptic plasticity promotes resilience against stress in mice” (Nature Communications, 2018)
pEC50, pIC50: −log10 of the molar value.

Columns and labels:
IL-6 [1] = experiment: LPS-induced IL-6 production in PBMCs (screening, dose response); type: cell-based, mouse
Source text: BDPP contains a variety of polyphenols. Orally consumed polyphenols are typically bioavailable in various organs and tissues as metabolites (phase II polyphenol conjugates and phenolic acids) following xenobiotic metabolism and gastrointestinal microbiome fermentation. It is possible that some metabolites may counteract the positive effect of the others. Therefore, if supplied as BDPP, the overall benefits might be reduced due to potential ‘cancellation’ effects. By identifying individual metabolites that selectively target key pathological mechanisms (e.g., Rac1 and IL-6) we can greatly improve the efficacy. We and others recently identified 21 BDPP-derived phenolic metabolites that accumulate in blood and/or in the CNS (14 polyphenolic metabolites and 7 phenolic acids, Supplementary Table 1)[25], [28], [33], among which 14 are currently accessible, [34]. We initiated a high-throughput screen of these metabolites for their ability to modulate IL-6 and Rac1. Peripheral blood mononuclear cells (PBMCs) isolated from C57BL/6 mice were pretreated with plasma bioavailable metabolites (Supplementary Table 1) for 16 h followed by stimulation with lipopolysaccharide (LPS) for 16 h. […] In parallel studies, we screened 9 brain bioavailable metabolites using E18 MSN-enriched primary culture.
Whole blood from mice was mixed with complete RPMI media and laid over the Ficoll-Paque Plus (GE Healthcare, Sweden), centrifuged at 2200 r.p.m. for 15 min. The buffy coat containing PBMCs were isolated, washed once with BEP (0.5% BSA, 2 mM EDTA in PBS) and plated out in a 24-well plate at 5 × 10^5/well in culture medium RPMI-1640 supplemented with 20% horse serum, 10% FBS, 2 mM L-glutamine, 25 mM Hepes and 100 U/ml penicillin/streptomycin. PBMCs were treated with various phenolic acids for 16 h and challenged with 7.5 µg/ml LPS. Supernatant was collected by centrifugation following 16 h of LPS stimulation and the levels of IL-6 were measured using the Mouse IL-6 Quantikine ELISA Kit from R & D System.

[2] = tested on: pro-inflammatory cytokines; experiment: Secreted cytokines of PBMCs following LPS stimulation (multiplex); type: cell-based, mouse
Procedure: To investigate how DHCA may attenuate IL-6 generation, we tested the effect of DHCA on Toll-like receptor-4 mediated signaling pathways. PBMCs were pretreated with DHCA and stimulated with LPS using the same protocol as during screening. Samples were taken at 0, 30 min, 60 min, 6 h and 16 h following LPS stimulation and cell lysates were subjected to a multiplex ELISA assay. […] Based on evidence that DNA methylation at a single CpG in the human IL-6 promoter region effectively alters IL-6 expression, we next tested whether DHCA can modulate IL-6 gene expression through methylation mechanisms. We treated PBMC cells with DHCA and measured the expression of enzymes essential for DNA methylation/demethylation. […] To investigate how methylation influences IL-6 gene expression, we employed the CpG-free luciferase reporter system. We cloned a ~280 bp CpG rich DNA segment from the mouse IL-6 promoter into a promoterless CpG-free reporter construct and transfected into N2a cells. We found the CpG-rich IL-6 promoter segment presented no inherent promoter activity as reflected by no differences in luciferase activity compared to the control construct (Fig. 2f). […] To test whether DHCA may influence the expression of other pro-inflammatory factors, we measured the level of secreted cytokines following LPS stimulation (Supplementary Fig. 3). […]

IL-6 [3] = experiment: In vivo dose finding: plasma IL-6 after LPS challenge; design: species or system mouse; conditions: 50 µg to 50 mg/kg-BW/day in drinking water, 2 weeks; LPS 0.4 mg/kg-BW i.p.; 5 and 50 mg/kg most significant
Procedure: (§1) We then initiated dose response and safety studies in mice to determine testing dosages and safety of DHCA and Mal-gluc. C57BL/6 mice were treated with either DHCA (doses ranging from 50 µg to 50 mg/kg-BW/day) or Mal-gluc (doses ranging from 50 ng to 5 mg/kg-BW/day) for 2 weeks to simulate long-term administration. Mice treated with DHCA were challenged with intraperitoneal (i.p.) injection of 0.4 mg/kg-BW LPS and plasma levels of IL-6 were measured 6 h post injection. […] Following common discovery-stage practices, we measured the plasma levels of alkaline phosphatase (ALP), aspartate aminotransferase (AST), and alanine aminotransferase (ALT) for liver function and blood urea nitrogen (BUN) for renal function.
Male C57BL/6 J mice (8-week-old) were placed on a polyphenol-free AIN-93M diet and treated with various doses of DHCA (vehicle, 50 µg, 500 µg, 5 mg, and 50 mg/kg-BW/day), delivered through their drinking water for two weeks. Animals were then sacrificed and plasma was collected for routine biochemistry panel analysis including ALP, ALT, and AST for liver function and blood urea nitrogen (BUN) content for kidney function. A separate group of mice was similarly treated and challenged with an i.p. injection of 0.4 mg/kg body weight LPS and plasma was collected 6 h post injection for IL-6 analysis. […]

[4] = tested on: DNA-methyltransferase 1 (DNMT1); experiment: Expression of DNA methylation/demethylation enzymes in PBMCs; type: cell-based, mouse
Procedure: To investigate how DHCA may attenuate IL-6 generation, we tested the effect of DHCA on Toll-like receptor-4 mediated signaling pathways. PBMCs were pretreated with DHCA and stimulated with LPS using the same protocol as during screening. Samples were taken at 0, 30 min, 60 min, 6 h and 16 h following LPS stimulation and cell lysates were subjected to a multiplex ELISA assay. […] Based on evidence that DNA methylation at a single CpG in the human IL-6 promoter region effectively alters IL-6 expression, we next tested whether DHCA can modulate IL-6 gene expression through methylation mechanisms. We treated PBMC cells with DHCA and measured the expression of enzymes essential for DNA methylation/demethylation. […] To investigate how methylation influences IL-6 gene expression, we employed the CpG-free luciferase reporter system. […] To test whether DHCA may influence the expression of other pro-inflammatory factors, we measured the level of secreted cytokines following LPS stimulation (Supplementary Fig. 3).
(§2) Total RNA from MSN-enriched cultures or brain NAc was isolated using the RNeasy Mini Kit (Qiagen, Valencia, CA, USA) and reverse transcribed. Gene expression was measured in four replicates by quantitative RT-PCR using Maxima SYBR Green master mix (Fermentas) in ABI Prism 7900HT. […]

Rac1 = experiment: In vivo dose finding: Rac1 mRNA in the NAc; design: species or system mouse; conditions: 50 ng to 5 mg/kg-BW/day in drinking water, 2 weeks; strongest at 500 ng and 5 µg/kg-BW/day
Procedure: as §1
Male C57BL/6 J mice (8-week-old) were placed on a polyphenol-free AIN-93M diet and treated with various doses of DHCA (vehicle, 50 µg, 500 µg, 5 mg, and 50 mg/kg-BW/day), delivered through their drinking water for two weeks. […]
as §2

Compound	primary screening, LPS-induced IL-6 production (IL-6 [1]; 14 plasma bioavailable metabolites screened)	pIC50 (IL-6 [1]; Mus musculus, PBMC, PBMCs pretreated 16 h, then LPS 16 h, read-out: calculated IC50, reducing LPS-induced IL-6 production)	pEC50 (IL-6 [1]; Mus musculus, PBMC, dose response in PBMCs following LPS stimulation, read-out: EC50 (IL-6 response), Fig. 2b)	cytokine expression profile ([2]; PBMCs in the absence of LPS stimulation)	LPS-induced production of cytokines (GM-CSF, IL-1β, IL-12 p40 and p70, IL-17, MCP-1) ([2]; PBMCs with LPS stimulation)	plasma IL-6 6 h post LPS injection (IL-6 [3])	expression of DNMT1 [4]	Rac1 mRNA in the NAc (Rac1)
O=C(O)CCc1ccc(O)c(O)c1 [DHCA, 3(3,4-dihydroxy-phenyl) propionic acid]	most effective in reducing LPS-induced IL-6 production	4.75	4.75	did not influence cytokine expression profile	significantly reduced LPS-induced production of cytokines	dose-dependent suppression of IL-6	significantly reduced	
COc1cc(-c2[o+]c3cc(O)cc(O)c3cc2O[C@@H]2O[C@H](CO)[C@@H](O)[C@H](O)[C@H]2O)cc(OC)c1O [Mal-gluc]								dose-response increase of Rac1 expression
